This assay concerns the target T1, Csx1 (SisCsx1, SiCsx1) (Saccharolobus islandicus, UniProt F0NE21).
T1 sequence (F0NE21 1-454): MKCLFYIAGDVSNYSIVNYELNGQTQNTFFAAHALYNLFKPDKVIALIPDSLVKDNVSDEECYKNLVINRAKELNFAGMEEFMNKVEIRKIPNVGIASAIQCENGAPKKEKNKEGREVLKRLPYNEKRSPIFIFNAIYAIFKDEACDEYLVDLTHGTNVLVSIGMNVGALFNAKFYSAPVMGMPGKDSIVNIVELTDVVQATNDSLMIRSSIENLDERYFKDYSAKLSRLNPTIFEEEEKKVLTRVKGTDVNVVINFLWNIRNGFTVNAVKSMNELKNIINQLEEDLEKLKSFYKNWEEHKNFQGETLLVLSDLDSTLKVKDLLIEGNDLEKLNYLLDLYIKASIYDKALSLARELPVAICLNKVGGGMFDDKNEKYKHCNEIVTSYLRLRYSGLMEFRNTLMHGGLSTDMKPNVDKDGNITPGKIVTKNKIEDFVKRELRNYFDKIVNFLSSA
The assay can be described thus: RNA. Type of assay: biochemical.

For `Nc1ncnc2c1ncn2[C@@H]1O[C@@H]2COP(=O)(O)O[C@H]3[C@@H](O)[C@H](n4cnc5c(N)ncnc54)O[C@@H]3COP(=O)(O)O[C@H]3[C@@H](O)[C@H](n4cnc5c(N)ncnc54)O[C@@H]3COP(=O)(O)O[C@H]3[C@@H](O)[C@H](n4cnc5c(N)ncnc54)O[C@@H]3COP(=O)(O)O[C@H]2[C@H]1O` [c-A4], the EC50 came out at 7.4 nM.
